Several values for one entry are separate records, joined by “and”; a condition that tells them apart may be missing. Equal values may be shown once.
Key:
[1] = biological target: T1, 3HA-tagged F508del-CFTR in BHK cells (Homo sapiens, UniProt P13569, DEL508-508); assay: CFTR trafficking assay (surface expression); assay type: cell-based, hamster; conditions: for F508del-CFTR surface expression signal (Fig5a): individual replicates
T1 construct: expressed in transfected cells; host or cells: baby hamster kidney (BHK) cells (Carlile et al. 2007)
In short: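 BHK cells expressing 3HA-tagged F508del-CFTR treated 24 h with 10 μM compound (1% DMSO final), fixed, stained with anti-HA plus FITC-conjugated anti-mouse IgG. Fluorescence (488/510 nm) background-subtracted and normalized to DMSO control and wt-CFTR-expressing cells.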

[2] = biological target: T2, 14-3-3β/CFTRpS753pS768 complex (Homo sapiens, UniProt P13569+P31946); assay: FP assay, 14-3-3β titration at constant compound concentration (apparent KD); assay type: binding
T2 construct: His6 (cleaved yes); made in house; peptide synthetic
Method: FC-A (100 µM) was added as a positive control and DMSO as the negative control. […] Background polarization was subtracted from all values, n = 3 technical replicates. […] Source data are provided as a Source Data file. […]
The FITC-labeled peptides were dissolved in FP buffer (10 mM HEPES pH 7.4, 150 mM NaCl, 0.1% Tween20, 1 mg/mL BSA) to a final concentration of 100 nM or 10 nM. […] The dilution series were made in 384 Corning Black Round Bottom well plates and their polarization was measured with a Tecan Infinite F500 plate reader (ex. = 485 nm, em. = 535 nm). The method of fitting of the curves was: “log(agonist) vs. response – Variable slope (four parameters)” from GraphPad Prism. The equation is Y = Bottom + (Top-Bottom)/(1 + 10^((LogEC50-X)*HillSlope)).
from the hit validation library.
f the compound, 100 µM FC-A, or both compound and FC-A, 100 µM each. Background polarization was subtracted f
rom all values, n=3 technical replicates.
Source data are provided as a Source Data file.

[3] = CY compound (100 μM), 14-3-3β concentration 119.2 pM
[4] = CY compound (100 μM), 14-3-3β concentration 4.88281e-7 M
[5] = CY compound (100 μM), 14-3-3β concentration 9.76563e-7 M
[6] = CY compound (100 μM), 14-3-3β concentration 1.95313e-6 M
[7] = CY compound (100 μM), 14-3-3β concentration 3.90625e-6 M
[8] = CY compound (100 μM), 14-3-3β concentration 7.8125e-6 M
[9] = CY compound (100 μM), 14-3-3β concentration 1.5625e-5 M
[10] = CY compound (100 μM), 14-3-3β concentration 3.125e-5 M
[11] = CY compound (100 μM), 14-3-3β concentration 6.25e-5 M
[12] = CY compound (100 μM), 14-3-3β concentration 0.000125 M
[13] = CY compound (100 μM), 14-3-3β concentration 0.00025 M
[14] = CY compound (100 μM), 14-3-3β concentration 0.0005 M
[15] = FC-A + CY compound, 14-3-3β concentration 6.10352e-8 M
[16] = FC-A + CY compound, 14-3-3β concentration 1.2207e-7 M
[17] = FC-A + CY compound, 14-3-3β concentration 2.44141e-7 M
[18] = FC-A + CY compound, 14-3-3β concentration 4.88281e-7 M
[19] = FC-A + CY compound, 14-3-3β concentration 9.76563e-7 M
[20] = FC-A + CY compound, 14-3-3β concentration 1.95313e-6 M
[21] = FC-A + CY compound, 14-3-3β concentration 3.90625e-6 M
[22] = FC-A + CY compound, 14-3-3β concentration 7.8125e-6 M
[23] = FC-A + CY compound, 14-3-3β concentration 1.5625e-5 M
[24] = FC-A + CY compound, 14-3-3β concentration 3.125e-5 M
[25] = FC-A + CY compound, 14-3-3β concentration 6.25e-5 M
[26] = FC-A + CY compound, 14-3-3β concentration 0.000125 M
[27] = FC-A + CY compound, 14-3-3β concentration 0.00025 M
[28] = FC-A + CY compound, 14-3-3β concentration 0.0005 M

T1 sequence (P13569 with tags, fused parts or gaps DEL508-508): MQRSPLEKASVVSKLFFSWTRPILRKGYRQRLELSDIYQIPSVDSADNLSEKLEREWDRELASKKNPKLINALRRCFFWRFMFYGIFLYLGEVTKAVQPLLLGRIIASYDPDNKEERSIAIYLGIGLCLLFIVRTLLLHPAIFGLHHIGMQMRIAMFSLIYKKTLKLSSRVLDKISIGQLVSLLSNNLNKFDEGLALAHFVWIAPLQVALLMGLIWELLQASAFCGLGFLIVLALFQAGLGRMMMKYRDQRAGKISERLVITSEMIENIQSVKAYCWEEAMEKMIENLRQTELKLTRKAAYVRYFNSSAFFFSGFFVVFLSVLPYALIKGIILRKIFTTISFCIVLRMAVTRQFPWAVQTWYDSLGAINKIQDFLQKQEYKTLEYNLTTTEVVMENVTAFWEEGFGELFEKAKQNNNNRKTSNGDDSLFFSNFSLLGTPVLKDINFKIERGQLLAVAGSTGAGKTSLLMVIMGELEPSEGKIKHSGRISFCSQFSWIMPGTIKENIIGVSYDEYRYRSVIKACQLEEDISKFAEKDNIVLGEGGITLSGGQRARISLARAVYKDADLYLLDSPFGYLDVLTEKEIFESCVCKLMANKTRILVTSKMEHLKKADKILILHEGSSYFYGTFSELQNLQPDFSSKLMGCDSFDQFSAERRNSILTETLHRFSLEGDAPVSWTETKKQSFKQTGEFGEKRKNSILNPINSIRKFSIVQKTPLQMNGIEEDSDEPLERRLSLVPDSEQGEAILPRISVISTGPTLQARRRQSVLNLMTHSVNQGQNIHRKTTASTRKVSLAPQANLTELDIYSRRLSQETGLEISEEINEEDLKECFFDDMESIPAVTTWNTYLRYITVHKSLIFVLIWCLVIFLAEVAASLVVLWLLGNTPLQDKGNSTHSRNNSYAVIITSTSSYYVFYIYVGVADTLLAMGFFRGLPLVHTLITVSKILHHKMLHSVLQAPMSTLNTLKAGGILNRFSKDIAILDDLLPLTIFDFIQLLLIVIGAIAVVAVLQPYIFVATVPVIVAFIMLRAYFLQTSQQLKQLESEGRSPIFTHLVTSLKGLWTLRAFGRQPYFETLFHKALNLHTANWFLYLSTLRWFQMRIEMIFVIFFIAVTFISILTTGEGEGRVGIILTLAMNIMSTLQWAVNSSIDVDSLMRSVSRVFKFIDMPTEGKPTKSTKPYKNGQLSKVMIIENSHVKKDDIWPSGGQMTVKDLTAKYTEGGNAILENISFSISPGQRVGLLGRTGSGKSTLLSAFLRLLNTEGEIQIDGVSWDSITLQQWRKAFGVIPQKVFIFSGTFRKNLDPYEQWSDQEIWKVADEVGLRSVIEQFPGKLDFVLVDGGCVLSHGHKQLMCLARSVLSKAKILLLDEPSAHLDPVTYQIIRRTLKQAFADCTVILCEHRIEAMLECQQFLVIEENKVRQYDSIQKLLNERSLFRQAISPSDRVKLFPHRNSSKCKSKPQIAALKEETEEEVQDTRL
T2 sequence (P31946 whole entry): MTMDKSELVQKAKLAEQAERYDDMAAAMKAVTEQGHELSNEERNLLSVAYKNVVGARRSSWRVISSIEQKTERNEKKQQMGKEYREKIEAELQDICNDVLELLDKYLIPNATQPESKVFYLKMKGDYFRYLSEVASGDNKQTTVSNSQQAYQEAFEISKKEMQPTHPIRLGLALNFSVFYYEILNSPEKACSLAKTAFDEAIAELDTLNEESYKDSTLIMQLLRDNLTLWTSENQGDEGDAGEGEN
T2 sequence (P13569 747-774 limits assumed): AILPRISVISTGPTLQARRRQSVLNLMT

SMILES	F508del-CFTR surface expression signal (Fig5a) [1]	Fluorescence polarization signal, 14-3-3β titration [2, 3]	Fluorescence polarization signal, 14-3-3β titration [2, 4]	Fluorescence polarization signal, 14-3-3β titration [2, 5]	Fluorescence polarization signal, 14-3-3β titration [2, 6]	Fluorescence polarization signal, 14-3-3β titration [2, 7]	Fluorescence polarization signal, 14-3-3β titration [2, 8]	Fluorescence polarization signal, 14-3-3β titration [2, 9]	Fluorescence polarization signal, 14-3-3β titration [2, 10]	Fluorescence polarization signal, 14-3-3β titration [2, 11]	Fluorescence polarization signal, 14-3-3β titration [2, 12]	Fluorescence polarization signal, 14-3-3β titration [2, 13]	Fluorescence polarization signal, 14-3-3β titration [2, 14]	Fluorescence polarization signal, 14-3-3β titration [2, 15]	Fluorescence polarization signal, 14-3-3β titration [2, 16]	Fluorescence polarization signal, 14-3-3β titration [2, 17]	Fluorescence polarization signal, 14-3-3β titration [2, 18]	Fluorescence polarization signal, 14-3-3β titration [2, 19]	Fluorescence polarization signal, 14-3-3β titration [2, 20]	Fluorescence polarization signal, 14-3-3β titration [2, 21]	other results
N=C(N)NCCCC1NC(=O)C(CCC(N)=O)NC(=O)C(CCCNC(=N)N)NC(=O)C2CCCN2Cc2cccc(c2)-c2ccccc2CNC1=O (stereo not drawn) [CY007455]	15.0857 and 101.743 and 158.532 and 44.3829	1.333	8.333 and 7.333	12.3333 and 8.333 and 11.3333	20.3333 and 17.3333 and 14.3333	27.3333 and 24.3333 and 22.3333	38.3333 and 32.3333 and 35.3333	51.3333 and 50.3333 and 48.3333	68.3333 and 69.3333 and 65.3333	92.3333 and 88.3333 and 91.3333	110.333 and 109.333	128.333 and 124.333 and 127.333	152.333 and 149.333	5 and 6 and 9	9 and 7	10 and 13 and 15	23 and 24 and 20	41 and 39 and 35	58 and 54 and 52	74 and 73 and 71	Fluorescence polarization signal, 14-3-3β titration ([2]; FC-A + CY compound, 14-3-3β concentration 119.2 pM): 2 and 1; Fluorescence polarization signal, 14-3-3β titration [2, 22]: 91 and 96 and 92; Fluorescence polarization signal, 14-3-3β titration [2, 23]: 115 and 114; Fluorescence polarization signal, 14-3-3β titration [2, 24]: 128 and 129 and 126; Fluorescence polarization signal, 14-3-3β titration [2, 25]: 141 and 144; Fluorescence polarization signal, 14-3-3β titration [2, 26]: 157 and 153 and 158; Fluorescence polarization signal, 14-3-3β titration [2, 27]: 160 and 164; Fluorescence polarization signal, 14-3-3β titration [2, 28]: 175 and 174
N=C(N)NCCCC1NC(=O)C(CCCCN)NCc2ccccc2Sc2ccccc2CNC(=O)C(Cc2ccc(O)cc2)NC1=O (stereo not drawn) [CY001951]	85.2534 and 218.237 and 180.048 and 282.523	-2.333	15.6667 and 13.6667	27.6667 and 26.6667 and 29.6667	40.6667 and 36.6667	51.6667 and 49.6667 and 46.6667	63.6667 and 58.6667 and 54.6667	72.6667 and 68.6667 and 66.6667	82.6667 and 80.6667	93.6667 and 92.6667 and 96.6667	115.667 and 110.667 and 114.667	126.667 and 124.667 and 128.667	148.667 and 147.667	10.3333 and 8.333	16.3333 and 18.3333 and 15.3333	30.3333 and 31.3333 and 29.3333	47.3333 and 45.3333 and 44.3333	71.3333 and 70.3333 and 66.3333	93.3333 and 85.3333	110.333 and 108.333 and 107.333	Fluorescence polarization signal, 14-3-3β titration ([2]; CY compound (100 μM), 14-3-3β concentration 2.44141e-7 M): 10.6667 and 8.667; Fluorescence polarization signal, 14-3-3β titration ([2]; FC-A + CY compound, 14-3-3β concentration 1.52588e-8 M): 4.333 and 2.333 and 3.333; Fluorescence polarization signal, 14-3-3β titration [2, 22]: 119.333 and 118.333 and 122.333; Fluorescence polarization signal, 14-3-3β titration [2, 23]: 129.333 and 131.333 and 128.333; Fluorescence polarization signal, 14-3-3β titration [2, 24]: 139.333 and 142.333 and 140.333; Fluorescence polarization signal, 14-3-3β titration [2, 25]: 148.333 and 150.333; Fluorescence polarization signal, 14-3-3β titration [2, 26]: 156.333 and 152.333; Fluorescence polarization signal, 14-3-3β titration [2, 27]: 161.333 and 163.333 and 160.333; Fluorescence polarization signal, 14-3-3β titration [2, 28]: 171.333 and 173.333
N=C(N)NCCCC1NCc2ccccc2Sc2ccccc2CNC(=O)C(Cc2ccc(O)cc2)NC(=O)C(CCCN)NC1=O (stereo not drawn) [CY007424]	1698.78 and 1774.35 and 1725.92 and 1889.17	–	–	–	–	–	–	–	–	–	–	–	–	–	–	–	–	–	–	–	F508del-CFTR trafficking towards the plasma membrane ([1]; BHK cells, 24 h, 10 μM compound): strongest increase; stabilization factor (increase of apparent affinity of CFTR peptide to 14-3-3) ([2]; 100 μM compound, vs […] μM without compound): more than 300 x

— paper PMC9226124, “Macrocycle-stabilization of its interaction with 14-3-3 increases plasma membrane localization and activity of CFTR” (Nature Communications, 2022)
